Experimental data: patent US8124793B2, “Derivatives of ethylene methanedisulfonate as cancer chemotherapeutic agents” (priority 2007, dated 2012)

Assays:
Format in all cases: cell-based
XF 498 = assay: NCI screen, growth of human tumor cells: CNS Cancer XF 498; conditions: XF 498 (CNS Cancer), 10^−4 molar
Procedure: (§1) The compounds listed in Section II are arranged by their NSC number followed by the percent of growth of human tumor cells when the compound is administrated at 10^−4 molar concentration.
(§2) In the NCI screening process, each compound was tested and described by a minimum of 60 data points. The test data include, but are not limited to the type of cancer, the molar concentration used in the screen, and the percent growth of the cancer. In some cases, NMR and elemental analysis were used for structural assignment.

OVCAR-3 = assay: NCI screen, growth of human tumor cells: Ovarian Cancer OVCAR-3; conditions: OVCAR-3 (Ovarian Cancer), 10^−4 molar
In short: (§3)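 Percent-growth read-out from the NCI cancer cell screen; data annotated by cancer type and molar concentration, ≥60 points per compound.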

MALME-3M = assay: NCI screen, growth of human tumor cells: Melanoma MALME-3M; conditions: MALME-3M, 10^−4 molar
In short: as §3

RPMI-8226 = assay: NCI screen, growth of human tumor cells: Leukemia RPMI-8226
In short: as §3

NCI-H23 = assay: NCI screen, growth of human tumor cells: Non-Small Cell Lung NCI-H23
In short: as §3

DMS114 = assay: NCI screen, growth of human tumor cells: Small Cell Lung Cancer DMS114; conditions: 10^−4 molar
Procedure: as §1, §2

LXFL529 = assay: NCI screen, growth of human tumor cells: Non-Small Cell Lung Cancer LXFL529
HT29 = assay: NCI screen, growth of human tumor cells: Colon Cancer HT29; conditions: HT29 (Colon Cancer), 10^−4 molar
In short: as §3

OVCAR-8 = assay: NCI screen, growth of human tumor cells: Ovarian Cancer OVCAR-8; conditions: OVCAR-8 (Ovarian Cancer), 10^−4 molar
In short: as §3

RXF-631 = assay: NCI screen, growth of human tumor cells: Renal Cancer RXF-631; conditions: RXF-631 (Renal Cancer), 10^−4 molar
Procedure: as §1, §2

UO-31 = assay: NCI screen, growth of human tumor cells: Renal Cancer UO-31; conditions: UO-31, 10^−4 molar
In short: as §3

EKVX = assay: NCI screen, growth of human tumor cells: Non-Small Cell Lung EKVX; conditions: EKVX (Non-Small Cell Lung), 10^−4 molar
In short: as §3

SN12C = assay: NCI screen, growth of human tumor cells: Renal Cancer SN12C; conditions: SN12C (Renal Cancer), 10^−4 molar
In short: as §3

DMS273 = assay: NCI screen, growth of human tumor cells: Small Cell Lung Cancer DMS273; conditions: 10^−4 molar
Procedure: as §1, §2

UACC-257 = assay: NCI screen, growth of human tumor cells: Melanoma UACC-257; conditions: UACC-257 (Melanoma), 10^−4 molar
In short: as §3

CAKI-1 = assay: NCI screen, growth of human tumor cells: Renal Cancer CAKI-1; conditions: CAKI-1, 10^−4 molar
In short: as §3

NCI-H226 = assay: NCI screen, growth of human tumor cells: Non-Small Cell Lung NCI-H226; conditions: NCI-H226, 10^−4 molar
In short: as §3

SF-539 = assay: NCI screen, growth of human tumor cells: CNS Cancer SF-539; conditions: SF-539 (CNS Cancer), 10^−4 molar
In short: as §3

SF-295 = assay: NCI screen, growth of human tumor cells: CNS Cancer SF-295; conditions: SF-295 (CNS Cancer), 10^−4 molar
In short: as §3

IGROVI = assay: NCI screen, growth of human tumor cells: Ovarian Cancer IGROVI; conditions: IGROVI (Ovarian Cancer), 10^−4 molar
In short: as §3

SR = assay: NCI screen, growth of human tumor cells: Leukemia SR; conditions: SR
In short: as §3

CCRF-CEM = assay: NCI screen, growth of human tumor cells: Leukemia CCRF-CEM; conditions: CCRF-CEM
In short: as §3

SK-OV-3 = assay: NCI screen, growth of human tumor cells: Ovarian Cancer SK-OV-3; conditions: SK-OV-3 (Ovarian Cancer), 10^−4 molar
In short: as §3

MOLT-4 = assay: NCI screen, growth of human tumor cells: Leukemia MOLT-4; conditions: MOLT-4 (Leukemia), 10^−4 molar
In short: as §3

SF-268 = assay: NCI screen, growth of human tumor cells: CNS Cancer SF-268; conditions: SF-268 (CNS Cancer), 10^−4 molar
In short: as §3

KM12 = assay: NCI screen, growth of human tumor cells: Colon Cancer KM12; conditions: KM12 (Colon Cancer), 10^−4 molar
In short: as §3

SK-MEL-5 = assay: NCI screen, growth of human tumor cells: Melanoma SK-MEL-5; conditions: SK-MEL-5, 10^−4 molar
In short: as §3

NCI-H322M = assay: NCI screen, growth of human tumor cells: Non-Small Cell Lung NCI-H322M; conditions: NCI-H322M (Non-Small Cell Lung), 10^−4 molar
In short: as §3

HOP-92 = assay: NCI screen, growth of human tumor cells: Non-Small Cell Lung HOP-92; conditions: HOP-92, 10^−4 molar
In short: as §3

OVCAR-4 = assay: NCI screen, growth of human tumor cells: Ovarian Cancer OVCAR-4; conditions: OVCAR-4 (Ovarian Cancer), 10^−4 molar
In short: as §3

SW620 = assay: NCI screen, growth of human tumor cells: Colon Cancer SW620; conditions: SW620, 10^−4 molar
In short: as §3

HCT-116 = assay: NCI screen, growth of human tumor cells: Colon Cancer HCT-116; conditions: HCT-116, 10^−4 molar
In short: as §3

SNB-75 = assay: NCI screen, growth of human tumor cells: CNS Cancer SNB-75; conditions: SNB-75 (CNS Cancer), 10^−4 molar
In short: as §3

786-0 = assay: NCI screen, growth of human tumor cells: Renal Cancer 786-0; conditions: 786-0, 10^−4 molar
In short: as §3

HOP-62 = assay: NCI screen, growth of human tumor cells: Non-Small Cell Lung HOP-62; conditions: HOP-62, 10^−4 molar
In short: as §3

SNB-78 = assay: NCI screen, growth of human tumor cells: CNS Cancer SNB-78; conditions: SNB-78 (CNS Cancer), 10^−4 molar
Procedure: as §1, §2

SK-MEL-28 = assay: NCI screen, growth of human tumor cells: Melanoma SK-MEL-28; conditions: SK-MEL-28 (Melanoma), 10^−4 molar
In short: as §3

TK-10 = assay: NCI screen, growth of human tumor cells: Renal Cancer TK-10; conditions: TK-10 (Renal Cancer), 10^−4 molar
Procedure: as §2

LOXIMVI = assay: NCI screen, growth of human tumor cells: Melanoma LOXIMVI; conditions: LOXIMVI, 10^−4 molar
In short: as §3

K562 = assay: NCI screen, growth of human tumor cells: Leukemia K562; conditions: K562 (Leukemia), 10^−4 molar
In short: as §3

COLO205 = assay: NCI screen, growth of human tumor cells: Colon Cancer COLO205; conditions: COLO205, 10^−4 molar
In short: as §3

A498 = assay: NCI screen, growth of human tumor cells: Renal Cancer A498; conditions: A498, 10^−4 molar
HL-60 (TB) = assay: NCI screen, growth of human tumor cells: Leukemia HL-60 (TB); conditions: HL-60 (TB) (Leukemia), 10^−4 molar
Procedure: as §2

UACC-62 = assay: NCI screen, growth of human tumor cells: Melanoma UACC-62; conditions: UACC-62, 10^−4 molar
In short: as §3

NCI-H522 = assay: NCI screen, growth of human tumor cells: Non-Small Cell Lung NCI-H522; conditions: NCI-H522 (Non-Small Cell Lung), 10^−4 molar
In short: as §3

SK-MEL-2 = assay: NCI screen, growth of human tumor cells: Melanoma SK-MEL-2; conditions: SK-MEL-2, 10^−4 molar
In short: as §3

AS49/ATCC = assay: NCI screen, growth of human tumor cells: Non-Small Cell Lung AS49/ATCC; conditions: AS49/ATCC (Non-Small Cell Lung), 10^−4 molar
In short: as §3

HCC-2998 = assay: NCI screen, growth of human tumor cells: HCC-2998 (listed under Non-Small Cell Lung); conditions: HCC-2998, 10^−4 molar
In short: as §3

O=S1(=O)OCCOS(=O)(=O)C1(I)I [NSC 648308, ethylene diiodomethanedisulfonate]
percent of growth of human tumor cells (XF 498): −67%
percent of growth of human tumor cells (OVCAR-3): −14%
% Growth (MALME-3M): −80%
% Growth (RPMI-8226; RPMI-8226, 10^−4 molar): −37%
% Growth (RPMI-8226; RPMI-8226, 10^−5 molar): 48%
% Growth (NCI-H23; NCI-H23, 10^−4 molar): −70%
% Growth (NCI-H23; NCI-H23, 10^−5 molar): 56%
percent of growth of human tumor cells (DMS114): −46%
% Growth (LXFL529; LXFL529, 10^−4 molar): −72%
% Growth (LXFL529; LXFL529, 10^−5 molar): 55%
percent of growth of human tumor cells (HT29): −18%
percent of growth of human tumor cells (OVCAR-8): −25%
percent of growth of human tumor cells (RXF-631): −44%
% Growth (UO-31): −95%
percent of growth of human tumor cells (EKVX): −35%
percent of growth of human tumor cells (SN12C): −61%
percent of growth of human tumor cells (DMS273): −45%
percent of growth of human tumor cells (UACC-257): −54%
% Growth (CAKI-1): −71%
% Growth (NCI-H226): −91%
percent of growth of human tumor cells (SF-539): −25%
percent of growth of human tumor cells (SF-295): −4%
percent of growth of human tumor cells (IGROVI): −24%
% Growth (SR; 10^−4 molar): −37%
% Growth (SR; 10^−5 molar): 48%
% Growth (CCRF-CEM; 10^−4 molar): −44%
% Growth (CCRF-CEM; 10^−5 molar): 55%
percent of growth of human tumor cells (SK-OV-3): −49%
percent of growth of human tumor cells (MOLT-4): −22%
percent of growth of human tumor cells (SF-268): −11%
percent of growth of human tumor cells (KM12): −58%
% Growth (SK-MEL-5): −91%
percent of growth of human tumor cells (NCI-H322M): −45%
% Growth (HOP-92): −78%
percent of growth of human tumor cells (OVCAR-4): −39%
% Growth (SW620): −55%
% Growth (HCT-116): −100%
percent of growth of human tumor cells (SNB-75): −36%
% Growth (786-0): −95%
% Growth (HOP-62): −69%
percent of growth of human tumor cells (SNB-78): −6%
percent of growth of human tumor cells (SK-MEL-28): −29%
percent of growth of human tumor cells (TK-10): −19%
% Growth (LOXIMVI): −93%
percent of growth of human tumor cells (K562): −16%
% Growth (COLO205): −61%
% Growth (A498): −100%
percent of growth of human tumor cells (HL-60 (TB)): −16%
% Growth (UACC-62): −82%
percent of growth of human tumor cells (NCI-H522): −45%
% Growth (SK-MEL-2): −80%
percent of growth of human tumor cells (AS49/ATCC): −17%
% Growth (HCC-2998): −99%
